Results from patent US20200247815A1, “PYRAZOLYL-CONTAINING TRICYCLIC DERIVATIVE, PREPARATION METHOD THEREFOR AND USE THEREOF” (Jiangsu Hansoh Pharmaceutical Group Co., Ltd., priority 2017, published 2020).

Experiments:
ERK-1 kinase = target: T1, ERK-1 kinase (Homo sapiens, UniProt P27361); assay: Inhibition of ERK-1 kinase activity (LANCE Ultra TR-FRET); type: biochemical; conditions: ERK1 enzyme 0.4 nM, ATP 38.15 μM
T1 construct: purchased Invitrogen PV3311
Procedure, shortened: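 Reactions contained 0.4 nM ERK1, 0.5 μM Ulight-MBP peptide and 38.15 μM ATP in pH 7.4 Hepes/MgCl2 buffer with 4% DMSO and ran 60 minutes at room temperature. Detection used Eu-anti-p-MBP with a 665/615 nm TR-FRET ratio, normalised to DMSO and no-enzyme controls. Final concentrations were 100 nM to 0.005 nM, and IC50 came from a 4-parameter fit.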

ERK-2 kinase = target: T2, ERK-2 kinase (Homo sapiens, UniProt P28482); assay: Inhibition of ERK-2 kinase activity (LANCE Ultra TR-FRET); type: biochemical; conditions: ERK-2 enzyme 0.08 nM, ATP 38.15 μM
T2 construct: purchased Invitrogen PV3313
Procedure, shortened: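 Recombinant ERK-2 (0.08 nM) with ULight-MBP peptide (0.5 μM) and ATP (38.15 μM) in Hepes pH 7.4 buffer, compound 100 nM to 0.005 nM final, 4% DMSO, 60 min at room temperature. Eu-anti-p-MBP TR-FRET (665/615 nm) read after EDTA stop; % inhibition versus DMSO and no-enzyme controls fitted 4-parameter for Abs_IC50.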

[1] = Pharmacokinetics assay in mice (oral, plasma); type: in vivo, Balb/c Mouse
Procedure: Balb/c Mouse was used as the test animal. The pharmacokinetic behavior of compounds of Example 1, 2 and 7 administrated orally was studied in mice (plasma).
170 g of PEG400 and 20 g of Solutol HS-15 were added to a 250 mL glass flask, and then 10 mL of NMP was added. The solution was mixed well by ultrasound for 10 minutes to obtain a clear solution.
11.2 mg of the compound of Example 1, 10.8 mg of the compound of Example 2 and 9.8 mg of the compound of Example 7 were weighted to a 4 mL glass flasks respectively, […], 2.160 mL and […] of the above solution were treated by ultrasound for 10 minutes to obtain a colorless clear solution with a concentration of 5 mg/mL.
After fasting overnight, the male Balb/c mice were administrated with the compounds (PO), the dose was 50 mg/kg, and the administration volume was 10 mL/kg.
Blood was taken before administration and at 0.25, 0.5, 1, 2, 4, 6, 8 and 24 hours after administration. The blood samples were stored in EDTA-2K tubes, and centrifuged for 6 minutes to separate the blood plasma. The plasma samples were stored at −80° C.

[2] = test system: human pancreatic cancer cell MiaPaca 2 xenograft (CDX) model; assay: Tumor inhibition experiment in MiaPaca 2 xenograft model; type: in vivo, BALB/c nude mice
Procedure: BALB/c nude mice were used as test animals. In vivo pharmacodynamic test was carried out in human pancreatic cancer cell MiaPaca 2 xenograft (CDX) model to evaluate the antitumor effect of the test compound.
MiaPaca 2 cells were obtained from the cell bank. After recovery, the cells were added to a DMEM medium (containing 10% FBS, 1% Glu and 1% P/S), and incubated in the CO2 incubator (the incubator temperature was 37° C., and the CO2 concentration was 5%). The cells were subjected to passage after spreading 80-90% of the bottom of the culture flask. After passage, the cells were incubated in the CO2 incubator. This process was repeated until the number of cells met the required by in vivo pharmacological inoculation. Cells in log phase were collected, and counted by the automatic cell counter. The cells were re-suspended with PBS and Matrigel (1:1 by volume) based on the counting results to obtain a cell suspension (cell density: […]), which was placed in an ice box.
Female BALB/c nude mice (6-8 weeks old, body weight: 18-22 grams) were used as test animals. The mice were maintained in individually ventilated cages (5 mice per cage) in a special pathogen-free environment. All cages, padding and water were disinfected before use. All animals had free access to standard certified commercial laboratory diets. The nude mice were labeled with disposable ear tags before the experiment. The skin of the inoculated area was sterilized with 75% medical alcohol before inoculation. Each mouse was subcutaneously inoculated with 0.1 ml (containing 8*10^6 cells) of MiaPaca 2 tumor cells on the right back. Administration was started when the average tumor volume reached 100-200 mm^3. The test compound was administrated intragastrically daily. The tumor volume (mm^3) was measured with vernier caliper twice a week. Calculation formula: V=0.5*D*d*d, wherein D and d refer to the major and minor diameter of the tumor, respectively. The anti-tumor efficacy was determined by dividing the average tumor increase volume of compound-treated animals by the average tumor increase volume of untreated animals. Calculation formula of tumor inhibition rate: TGI (%)=1−[(Vt−V0)administration group/(Vt−V0)solvent control group]*100%. All animals were euthanized after the experiment.

[3] = Solubility (statement, no method); type: physicochemical
[4] = conventional solvents, background statement; cited from earlier work
[5] = mouse, male Balb/c mice, PO 50 mg/kg, plasma
[6] = 100 mg/kg QD × 3 w, intragastric, Day 21

T1 sequence (P27361 whole entry): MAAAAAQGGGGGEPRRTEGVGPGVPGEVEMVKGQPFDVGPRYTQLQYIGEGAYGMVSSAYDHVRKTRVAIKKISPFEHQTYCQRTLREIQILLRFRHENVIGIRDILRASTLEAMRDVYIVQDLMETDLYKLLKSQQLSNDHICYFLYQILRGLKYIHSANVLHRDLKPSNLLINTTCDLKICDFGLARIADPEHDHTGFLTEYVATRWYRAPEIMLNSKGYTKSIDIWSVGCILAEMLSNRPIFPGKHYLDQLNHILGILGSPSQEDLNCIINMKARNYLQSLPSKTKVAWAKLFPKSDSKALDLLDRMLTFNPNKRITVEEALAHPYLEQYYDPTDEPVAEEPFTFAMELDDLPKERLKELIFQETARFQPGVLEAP
T2 sequence (P28482 whole entry): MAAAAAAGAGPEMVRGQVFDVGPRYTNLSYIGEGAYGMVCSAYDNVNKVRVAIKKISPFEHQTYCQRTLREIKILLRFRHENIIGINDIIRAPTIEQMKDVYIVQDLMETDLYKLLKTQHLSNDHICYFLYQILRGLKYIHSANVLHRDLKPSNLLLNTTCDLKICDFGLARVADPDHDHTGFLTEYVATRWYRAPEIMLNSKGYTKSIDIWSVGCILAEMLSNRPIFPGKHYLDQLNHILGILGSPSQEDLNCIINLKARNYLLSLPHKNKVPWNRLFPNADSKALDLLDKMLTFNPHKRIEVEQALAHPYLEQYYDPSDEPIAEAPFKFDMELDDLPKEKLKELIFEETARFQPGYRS

Q: Which results are given for `C[C@@H](NC(=O)c1nc2cc3c(-c4ccncc4)n[nH]c3cc2[nH]1)c1ccc(F)cc1` [Example 7, (R)—N-(1-(4-fluorophenyl)ethyl)-3-(pyridin-4-yl)-1,7-dihydroimidazo[4,5-f]indazole-6-carboxamide]?
A: IC50 (ERK-1 kinase): 0.41 nM; IC50 (ERK-2 kinase): 0.18 nM; Exposure in mouse plasma ([1]; dose of 50 mg/kg, oral): good exposure; Cmax [1, 5]: 8260 ng/mL; MRT [1, 5]: 2.33 h; Tmax [1, 5]: 1 h; half-life [1, 5]: 49.8 min; AUC(0-t) ([1]; mouse, male Balb/c mice, PO 50 mg/kg, plasma, read-out: AUC0-24): 27300 ng·h/mL; Tumor volume (Mean ± SD) Day 0 ([2]; 100 mg/kg QD × 3 w, intragastric, Day 0): 156 ± 33 mm^3; TGI Day 21 [2, 6]: 58.3%; Tumor volume (Mean ± SD) Day 21 [2, 6]: 426 ± 205 mm^3; ΔT/ΔC Day 21 [2, 6]: 41.63%; Inhibition of growth of xenograft ([2]; 100 mg/kg QD, continuous oral administration for 21 days): significantly inhibit the growth; Solubility compared with ERK compounds of the prior art [3]: higher solubility

Q: Which “Solubility” value [4] does the source give for `O=C1Nc2cc3[nH]nc(-c4ccncc4)c3cc2CN1Cc1ccccc1` [KO-947] here?
A: The value was “poor solubility”.
